Assay results published in the NIST ThermoML archive (doi:10.1016/j.fluid.2008.03.009).
± gives the expanded uncertainty stated by the source.

Settings: Liquid, Vibrating tube method

CCCO [propan-1-ol]
Settings | mass density [kg/m3]
298.15 K, 110 kPa | 799.54 ± 0.11
298.15 K, 5270 kPa | 803.6 ± 0.2
298.15 K, 9870 kPa | 807.01 ± 0.22
298.15 K, 14700 kPa | 810.46 ± 0.25
298.15 K, 20530 kPa | 814.46 ± 0.27
298.15 K, 25030 kPa | 817.44 ± 0.3
298.15 K, 30100 kPa | 820.7 ± 0.32
298.15 K, 35010 kPa | 823.76 ± 0.34
298.15 K, 39560 kPa | 826.52 ± 0.37
323.15 K, 590 kPa | 779.78 ± 0.12
323.15 K, 5940 kPa | 784.71 ± 0.21
323.15 K, 10600 kPa | 788.81 ± 0.24
323.15 K, 16000 kPa | 793.2 ± 0.27
323.15 K, 20640 kPa | 796.73 ± 0.29
323.15 K, 24880 kPa | 799.83 ± 0.31
323.15 K, 30800 kPa | 803.99 ± 0.35
323.15 K, 35220 kPa | 807.01 ± 0.37
323.15 K, 39790 kPa | 810.02 ± 0.4
348.15 K, 140 kPa | 757.11 ± 0.13
348.15 K, 5170 kPa | 762.68 ± 0.22
348.15 K, 10260 kPa | 767.5 ± 0.25
348.15 K, 15790 kPa | 772.52 ± 0.28
348.15 K, 20560 kPa | 776.41 ± 0.31
348.15 K, 24810 kPa | 780.32 ± 0.34
348.15 K, 29300 kPa | 784.09 ± 0.36
348.15 K, 35560 kPa | 789.01 ± 0.4
348.15 K, 39950 kPa | 792.23 ± 0.43
373.15 K, 360 kPa | 733.24 ± 0.14
373.15 K, 5480 kPa | 739.29 ± 0.23
373.15 K, 10290 kPa | 745.11 ± 0.26
373.15 K, 15700 kPa | 750.9 ± 0.3
373.15 K, 19960 kPa | 755.19 ± 0.33
373.15 K, 25170 kPa | 760.17 ± 0.36
373.15 K, 30510 kPa | 765.02 ± 0.4
373.15 K, 35920 kPa | 769.7 ± 0.44
373.15 K, 39780 kPa | 772.91 ± 0.47
398.15 K, 620 kPa | 705.55 ± 0.16
398.15 K, 5670 kPa | 713.23 ± 0.24
398.15 K, 10620 kPa | 720.1 ± 0.28
398.15 K, 15580 kPa | 726.46 ± 0.32
398.15 K, 20350 kPa | 732.35 ± 0.35
398.15 K, 25090 kPa | 737.77 ± 0.39
398.15 K, 31150 kPa | 744.07 ± 0.44
398.15 K, 35410 kPa | 748.41 ± 0.48
398.15 K, 39390 kPa | 752.32 ± 0.51
423.15 K, 1570 kPa | 674.63 ± 0.18
423.15 K, 5870 kPa | 682.79 ± 0.26
423.15 K, 10160 kPa | 690.93 ± 0.3
423.15 K, 15320 kPa | 699.32 ± 0.34
423.15 K, 20500 kPa | 707.2 ± 0.38
423.15 K, 26280 kPa | 715.01 ± 0.44
423.15 K, 31600 kPa | 721.36 ± 0.49
423.15 K, 35780 kPa | 726.03 ± 0.52
423.15 K, 39700 kPa | 730.17 ± 0.56
